This is an account of results in patent US8252832B2, “Kinesin inhibitors as cancer therapeutics” (Novartis AG, priority 2007, dated 2012).

Each structure is given as a SMILES string. Like-named read-outs stand apart in the source and are kept apart here.

Holding throughout (experiment): CellTiter-Glo, NCI60 panel
Holding throughout (type): cell-based

Assay [1] concerns OVCAR-3. As to conditions: Ovarian; for GI50: Homo sapiens. Summed up:
(§1)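 NCI-60 tumour lines exposed to compound from DMSO dilutions made at 1000× final, with suspension lines dosed right after plating and adherent lines after 24 h attachment. Cells were incubated 48 h at 37° C, then ATP was measured by luminescence. Reported: concentration for 50% growth reduction.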

The subject of assay [2] is UACC-62. As to conditions: Melanoma; for GI50: Homo sapiens. Summed up: as §1
Assay [3] has as its system UO-31. As to conditions: Renal; for GI50: Homo sapiens. Summed up:
as §1

In assay [4] the test system is SK-OV-3. As to conditions: Ovarian; for GI50: Homo sapiens. Summed up:
as §1

Assay [5] relates to M14. As to conditions: Melanoma; for GI50: Homo sapiens. Summed up: as §1
Assay [6] deals with MCF7. As to conditions: Breast; for GI50: Homo sapiens. Summed up: as §1
The subject of assay [7] is SF-539. As to conditions: CNS; for GI50: Homo sapiens. Summed up: as §1
Assay [8] has as its system SR. As to conditions: Leukemia; for GI50: Homo sapiens. Summed up:
as §1

Setting [9] is: GI50 in nM, read-out: Log(GI50) (converted).

As usually defined, the GI50 is the concentration giving 50% growth inhibition. For `CC(C)(C)[C@H](c1nc(-c2cc(F)ccc2F)cn1Cc1ccccc1)N(CC[C@H](N)CF)C(=O)CO` [Compound IIa], the 50% growth inhibitory concentration (GI50) in assay [1] (setting [9]), in assay [1] (read-out: GI50), in assay [2] (setting [9]), in assay [2] (read-out: GI50), in assay [3] (setting [9]) and in assay [3] (read-out: GI50) was 10 nM throughout. Moreover, the concentration for 50% growth inhibition (GI50) in assay [4] (setting [9]) is 0.421 nM; in assay [4] (read-out: GI50) it was 0.421 nM; in assay [5] (setting [9]) it was 0.209 nM; in assay [5] (read-out: GI50) it was 0.209 nM; in assay [6] (setting [9]), 10 nM; in assay [6] (read-out: GI50) it was 10 nM. Besides, the GI50 in assay [7] (setting [9]) was 0.387 nM; in assay [7] (read-out: GI50), 0.387 nM; in assay [8] (setting [9]), 0.095 nM; in assay [8] (read-out: GI50), 0.095 nM. The “Differential vs mean Log(GI50)” value is −0.669 in assay [1]; −0.669 in assay [2]; −0.669 in assay [3]; 0.707 in assay [4]; 1.011 in assay [5]; −0.669 in assay [6]. Also, the results for the “Differential vs mean Log(GI50)” value in assay [7] and in assay [8] were 0.743 and 1.353, respectively.
